Measurements: PMC8699473, “An Easily Expandable Multi-Drug LC-MS Assay for the Simultaneous Quantification of 57 Oral Antitumor Drugs in Human Plasma” (Cancers, 2021)

Experiments:
[1] = Short-term stability in spiked pooled human plasma (bench-top, 4 °C, 56 °C)
[2] = Autosampler stability of ready for injection samples; type: physicochemical, human
[3] = Long-term stability in spiked pooled human plasma
[4] = Freeze-thaw stability in spiked pooled human plasma; type: physicochemical
[5] = set-up: method as in supplement references [1-55] as printed per drug; details: minimum steady-state blood plasma concentration after multiple dose administration; ref supplement references [1-55] per drug; cited from earlier work

CCC1=C[C@@H]2CN(C1)Cc1c([nH]c3ccccc13)[C@@](C(=O)OC)(c1cc3c(cc1OC)N(C)[C@H]1[C@@](O)(C(=O)OC)[C@H](OC(C)=O)[C@]4(CC)C=CCN5CC[C@]31[C@@H]54)C2 [Vinorelbine]
Short-time stability (1h, 56°C) Accuracy [%] ([1]; validation standard 2xLLOV): 42.2%
Short-time stability (24h, 4°C, without daylight) Accuracy [%] ([1]; validation standard 2xLLOV): 88.7%
Short-time stability (24h, RT, with daylight) Accuracy [%] ([1]; validation standard 2xLLOV): 78.0%
Short-time stability (24h, RT, without daylight) Accuracy [%] ([1]; validation standard 2xLLOV): 79.3%
Short-time stability (1h, 56°C) Accuracy [%] ([1]; validation standard LLOV): 67.0%
Short-time stability (24h, 4°C, without daylight) Accuracy [%] ([1]; validation standard LLOV): 96.3%
Short-time stability (24h, RT, with daylight) Accuracy [%] ([1]; validation standard LLOV): 98.2%
Short-time stability (24h, RT, without daylight) Accuracy [%] ([1]; validation standard LLOV): 96.4%
Short-time stability (1h, 56°C) Accuracy [%] ([1]; validation standard MOV): 37.2%
Short-time stability (24h, 4°C, without daylight) Accuracy [%] ([1]; validation standard MOV): 93.6%
Short-time stability (24h, RT, with daylight) Accuracy [%] ([1]; validation standard MOV): 66.8%
Short-time stability (24h, RT, without daylight) Accuracy [%] ([1]; validation standard MOV): 70.0%
Short-time stability (1h, 56°C) Accuracy [%] ([1]; validation standard ULOV): 29.6%
Short-time stability (24h, 4°C, without daylight) Accuracy [%] ([1]; validation standard ULOV): 91.1%
Short-time stability (24h, RT, with daylight) Accuracy [%] ([1]; validation standard ULOV): 62.0%
Short-time stability (24h, RT, without daylight) Accuracy [%] ([1]; validation standard ULOV): 57.4%
Autosampler (24h, 4°C) Accuracy [%] ([2]; validation standard 2xLLOV): 89.9%
Autosampler (72h, 4°C) Accuracy [%] ([2]; validation standard 2xLLOV): 87.3%
Autosampler (24h, 4°C) Accuracy [%] ([2]; validation standard LLOV): 65.0%
Autosampler (72h, 4°C) Accuracy [%] ([2]; validation standard LLOV): 67.9%
Autosampler (24h, 4°C) Accuracy [%] ([2]; validation standard MOV): 97.7%
Autosampler (72h, 4°C) Accuracy [%] ([2]; validation standard MOV): 99.6%
Autosampler (24h, 4°C) Accuracy [%] ([2]; validation standard ULOV): 102.4%
Autosampler (72h, 4°C) Accuracy [%] ([2]; validation standard ULOV): 99.5%
Long-term stability, 1 month, -20°C Accuracy [%] ([3]; validation standard 2xLLOV): 97.3%
Long-term stability, 1 month, -80°C Accuracy [%] ([3]; validation standard 2xLLOV): 110.2%
Long-term stability, 2 month, -20°C Accuracy [%] ([3]; validation standard 2xLLOV): 108.5%
Long-term stability, 2 month, -80°C Accuracy [%] ([3]; validation standard 2xLLOV): 94.1%
Long-term stability, 3 month, -20°C Accuracy [%] ([3]; validation standard 2xLLOV): 98.4%
Long-term stability, 3 month, -80°C Accuracy [%] ([3]; validation standard 2xLLOV): 97.8%
Long-term stability, 6 weeks, 4°C, without daylight Accuracy [%] ([3]; validation standard 2xLLOV): 75.3%
Long-term stability, 1 month, -20°C Accuracy [%] ([3]; validation standard LLOV): 118.3%
Long-term stability, 1 month, -80°C Accuracy [%] ([3]; validation standard LLOV): 110.0%
Long-term stability, 2 month, -20°C Accuracy [%] ([3]; validation standard LLOV): 98.1%
Long-term stability, 2 month, -80°C Accuracy [%] ([3]; validation standard LLOV): 109.4%
Long-term stability, 3 month, -20°C Accuracy [%] ([3]; validation standard LLOV): 101.7%
Long-term stability, 3 month, -80°C Accuracy [%] ([3]; validation standard LLOV): 118.7%
Long-term stability, 6 weeks, 4°C, without daylight Accuracy [%] ([3]; validation standard LLOV): 85.9%
Long-term stability, 1 month, -20°C Accuracy [%] ([3]; validation standard MOV): 90.2%
Long-term stability, 1 month, -80°C Accuracy [%] ([3]; validation standard MOV): 88.9%
Long-term stability, 2 month, -20°C Accuracy [%] ([3]; validation standard MOV): 89.2%
Long-term stability, 2 month, -80°C Accuracy [%] ([3]; validation standard MOV): 92.4%
Long-term stability, 3 month, -20°C Accuracy [%] ([3]; validation standard MOV): 98.2%
Long-term stability, 3 month, -80°C Accuracy [%] ([3]; validation standard MOV): 93.5%
Long-term stability, 6 weeks, 4°C, without daylight Accuracy [%] ([3]; validation standard MOV): 73.1%
Long-term stability, 1 month, -20°C Accuracy [%] ([3]; validation standard ULOV): 90.4%
Long-term stability, 1 month, -80°C Accuracy [%] ([3]; validation standard ULOV): 92.0%
Long-term stability, 2 month, -20°C Accuracy [%] ([3]; validation standard ULOV): 87.6%
Long-term stability, 2 month, -80°C Accuracy [%] ([3]; validation standard ULOV): 99.6%
Long-term stability, 3 month, -20°C Accuracy [%] ([3]; validation standard ULOV): 92.2%
Long-term stability, 3 month, -80°C Accuracy [%] ([3]; validation standard ULOV): 98.1%
Long-term stability, 6 weeks, 4°C, without daylight Accuracy [%] ([3]; validation standard ULOV): 56.9%
Freeze-Thaw Accuracy [%] ([4]; validation standard 2xLLOV): 105.8%
Freeze-Thaw Accuracy [%] ([4]; validation standard LLOV): 120.0%
Freeze-Thaw Accuracy [%] ([4]; validation standard MOV): 95.7%
Freeze-Thaw Accuracy [%] ([4]; validation standard ULOV): 96.7%
cmin [5]: 2.6 ng/mL
